{
  "source": "patent US8840939B2",
  "about": "“Vigna unguiculata seed extract and compositions containing same” (Laboratoires Expanscience, priority 2009, dated 2014)",
  "key": {"[1]": {"test_system": "IL8", "experiment": "Release of IL8 by PMA-stimulated keratinocytes (ELISA)", "assay_type": "cell-based, Human", "conditions": "10^−7 M dexamethasone, NCTC2544 keratinocytes, 0.1 μg/ml PMA 24 hours", "description": "(§1) The anti-inflammatory effect of Vigna hydrolysate was evaluated by measuring the cytokines (IL1α, IL8) produced by keratinocytes in response to stimulation by PMA.\n(§2) Human keratinocytes (NCTC2544 cell line) were preincubated for 24 hours with 0.05% (w/v) Vigna hydrolysate or the reference molecule (10^−7 M dexamethasone). The cells were then treated with 0.1 μg/ml PMA, always in the presence of Vigna hydrolysate or dexamethasone, for 24 hours. The quantities of IL1α and IL8 released in the culture medium were evaluated by ELISA.\n(§3) The results were analyzed statistically by one-way analysis of variance (ANOVA) followed by Tukey's test:\n(§4) The percentage of inhibition in relation to the stimulated control (PMA) was calculated."}, "[2]": {"test_system": "IL1α", "experiment": "Release of IL1α by PMA-stimulated keratinocytes (ELISA)", "assay_type": "cell-based, Human", "conditions": "10^−7 M dexamethasone, NCTC2544 keratinocytes, 0.1 μg/ml PMA 24 hours", "description": "as §1, §2, §3, §4"}, "[3]": {"test_system": "MMP1", "experiment": "Gene expression of MMP1 by fibroblasts (RT-PCR)", "assay_type": "cell-based", "conditions": "5 ng/ml TGFβ1, normal human fibroblasts, 24 hours", "description": "(§5) The effect of Vigna hydrolysate on the modulation of the extracellular matrix of the dermis was evaluated on a dermal fibroblast model wherein the gene expression of elastin and MMP1 was studied.\n(§6) Normal human fibroblasts were treated for 24 hours with 0.01% and 0.05% (w/v) Vigna hydrolysate or with 5 ng/ml TGFβ1 (reference). The gene expression of elastin and MMP1 was analyzed by quantitative real-time RT-PCR.\n(§7) The results were analyzed statistically by one-way analysis of variance (ANOVA) followed by Dunnett's test:\n(§8) The level of gene expression was expressed in relative quantity (RQ) and the effect of the treatment in relation to the control cells in percentage of increase or inhibition."}, "[4]": {"test_system": "elastin", "experiment": "Gene expression of elastin by fibroblasts (RT-PCR)", "assay_type": "cell-based", "conditions": "5 ng/ml TGFβ1, normal human fibroblasts, 24 hours", "description": "as §5, §6, §7, §8"}},
  "data": [
    {"compound": "C[C@@H]1C[C@H]2[C@@H]3CCC4=CC(=O)C=C[C@]4(C)[C@@]3(F)[C@@H](O)C[C@]2(C)[C@@]1(O)C(=O)CO", "note": "[dexamethasone]", "values": [
      {"measurement": "IL8", "setting": "[1]", "result": "6.0 ± 0.2", "unit": "ng/mL"},
      {"measurement": "inhibition at 0.1 µM", "setting": "[1]; Homo sapiens, NCTC-2544, read-out: IL8, percentage of inhibition in relation to the stimulated control (PMA) (converted)", "result": 81, "unit": "%"},
      {"measurement": "IL1α", "setting": "[2]", "result": "14.0 ± 3.5", "unit": "pg/mL"},
      {"measurement": "inhibition at 0.1 µM", "setting": "[2]; Homo sapiens, NCTC-2544, read-out: IL1α, percentage of inhibition in relation to the stimulated control (PMA) (converted)", "result": 82, "unit": "%"}
    ]},
    {"compound": "TGFβ1: 5 ng/ml TGFβ1 (reference)", "values": [
      {"measurement": "MMP1 gene expression, percentage of inhibition in relation to the control cells", "setting": "[3]", "result": "−88", "unit": "%"},
      {"measurement": "MMP1 gene expression, relative quantity (RQ)", "setting": "[3]", "result": 0.12},
      {"measurement": "ELASTIN gene expression, percentage of increase in relation to the control cells", "setting": "[4]", "result": "+559%"},
      {"measurement": "ELASTIN gene expression, relative quantity (RQ)", "setting": "[4]", "result": 6.59}
    ]}
  ]
}
